Assays:
Experiment in all cases: Agar dilution MIC
[1] = test system: Prevotella denticola/loeschii group; assay type: cell-based; conditions: 6 isolates
[2] = test system: Anaerobiospirillum succiniciproducens; assay type: cell-based; conditions: 3 isolates
[3] = test system: Clostridium clostridioforme; assay type: cell-based; conditions: 11 isolates
[4] = test system: Fusobacterium spp. group 2; assay type: cell-based, Fusobacterium mortiferum, necrogenes, ulcerans; conditions: 12 isolates
[5] = test system: Fusobacterium spp group 1; assay type: cell-based; conditions: 19 isolates
Fusobacterium russii = assay type: cell-based
Actinomyces israelii = assay type: cell-based; conditions: 6 isolates
Bacteroides gracilis = assay type: cell-based, Bacteroides gracilis (Campylobacter gracilis); conditions: 11 isolates
[6] = test system: Actinomyces odontolyticus; assay type: cell-based; conditions: 10 isolates
[7] = test system: Prevotella melaninogenica; assay type: cell-based; conditions: 12 isolates
Porphyromonas gingivalis = assay type: cell-based; conditions: 13 isolates
[8] = test system: Peptostreptococcus magnus; assay type: cell-based; conditions: 13 isolates
Veillonella spp. = assay type: cell-based; conditions: 24 isolates
[9] = test system: Prevotella buccae-oris group; assay type: cell-based; conditions: 22 isolates
[10] = test system: Peptostreptococcus prevotii; assay type: cell-based; conditions: 9 isolates
Clostridium dfficile = assay type: cell-based, Clostridium difficile; conditions: 14 isolates
Prevotella intermedia = assay type: cell-based; conditions: 11 isolates
Clostridium inocuum = assay type: cell-based, Clostridium innocuum; conditions: 11 isolates
Clostridium ramosum = assay type: cell-based; conditions: 10 isolates
Bilophila wadsworthia = assay type: cell-based; conditions: 16 isolates; agar supplemented with pyruvate
[11] = test system: Peptostreptococcus micros; assay type: cell-based; conditions: 12 isolates
Porphyromonas canoris = assay type: cell-based; conditions: 10 isolates
Fusobacterium varium = assay type: cell-based; conditions: 17 isolates
Prevotella bivia = assay type: cell-based; conditions: 21 isolates
[12] = test system: Prevotella heparinolytica; assay type: cell-based; conditions: 16 isolates
[13] = test system: Porphyromonas asaccharolyticus; assay type: cell-based, Porphyromonas asaccharolytica; conditions: 11 isolates
[14] = test system: Anaerobiospirillum thomasii; assay type: cell-based; conditions: 13 isolates
[15] = test system: Peptostreptococcus asaccharolyticus; assay type: cell-based; conditions: 11 isolates
Bacteroides tectum = assay type: cell-based; conditions: 22 isolates

With Amoxicillin clavulanate the “Minimal Inhibitory Concentration 50% (MIC50)” value [1] was 0.06 µg/mL, the “Minimal Inhibitory Concentration Range” value [1] was 0.03 to 0.5 µg/mL and the “Minimal Inhibitory Concentration 50% (MIC50)” value [2] was 0.25 µg/mL. For the same substance, the “Minimal Inhibitory Concentration Range” value [2] was 0.25 to 0.5 µg/mL, the “Minimal Inhibitory Concentration 50% (MIC50)” value [3] was 0.5 µg/mL and the “Minimal Inhibitory Concentration 90% (MIC90)” value [3] was 1 µg/mL. For the same substance, the “Minimal Inhibitory Concentration Range” value [3] was 0.5 to 8 µg/mL, the “Minimal Inhibitory Concentration 50% (MIC50)” value [4] was 1 µg/mL and the “Minimal Inhibitory Concentration 90% (MIC90)” value [4] was 2 µg/mL. The “Minimal Inhibitory Concentration 50% (MIC50)” value [5] was 0.06 µg/mL, the “Minimal Inhibitory Concentration 50% (MIC50)” value (Fusobacterium russii) was 0.06 µg/mL and the “Minimal Inhibitory Concentration 50% (MIC50)” value (Actinomyces israelii) was 0.03 µg/mL. The “Minimal Inhibitory Concentration Range” value (Actinomyces israelii) was 0.03 to 1 µg/mL, the “Minimal Inhibitory Concentration 50% (MIC50)” value (Bacteroides gracilis) was 0.5 µg/mL and the “Minimal Inhibitory Concentration 90% (MIC90)” value (Bacteroides gracilis) was 2 µg/mL. The “Minimal Inhibitory Concentration 90% (MIC90)” value [6] was 0.25 µg/mL, the “Minimal Inhibitory Concentration Range” value [6] was 0.06 to 0.125 µg/mL and the “Minimal Inhibitory Concentration 50% (MIC50)” value [7] was 2 µg/mL. The “Minimal Inhibitory Concentration 90% (MIC90)” value [7] was 4 µg/mL, the “Minimal Inhibitory Concentration Range” value [7] was 0.03 to 16 µg/mL and the “Minimal Inhibitory Concentration 90% (MIC90)” value (Porphyromonas gingivalis) was 0.06 µg/mL. The “Minimal Inhibitory Concentration 50% (MIC50)” value [8] was 0.03 µg/mL, the “Minimal Inhibitory Concentration Range” value [8] was 0.03 to 1 µg/mL and the “Minimal Inhibitory Concentration 50% (MIC50)” value (Veillonella spp.) was 0.5 µg/mL. For the same substance, the “Minimal Inhibitory Concentration 90% (MIC90)” value (Veillonella spp.) was 2 µg/mL, the “Minimal Inhibitory Concentration 50% (MIC50)” value [9] was 0.25 µg/mL and the “Minimal Inhibitory Concentration 90% (MIC90)” value [9] was 1 µg/mL. The “Minimal Inhibitory Concentration Range” value [9] was 0.125 to 2 µg/mL, the “Minimal Inhibitory Concentration 50% (MIC50)” value [10] was 0.03 µg/mL and the “Minimal Inhibitory Concentration 50% (MIC50)” value (Clostridium dfficile) was 1 µg/mL. For the same substance, the “Minimal Inhibitory Concentration 90% (MIC90)” value (Clostridium dfficile) was 1 µg/mL, the “Minimal Inhibitory Concentration Range” value (Clostridium dfficile) was 0.5 to 1 µg/mL and the “Minimal Inhibitory Concentration 50% (MIC50)” value (Prevotella intermedia) was 0.03 µg/mL. For the same substance, the “Minimal Inhibitory Concentration Range” value (Prevotella intermedia) was 0.03 to 0.5 µg/mL, the “Minimal Inhibitory Concentration 50% (MIC50)” value (Clostridium inocuum) was 0.5 µg/mL and the “Minimal Inhibitory Concentration 90% (MIC90)” value (Clostridium inocuum) was 0.5 µg/mL. For the same substance, the “Minimal Inhibitory Concentration Range” value (Clostridium inocuum) was 0.5 to 2 µg/mL, the “Minimal Inhibitory Concentration 50% (MIC50)” value (Clostridium ramosum) was 0.06 µg/mL and the “Minimal Inhibitory Concentration 90% (MIC90)” value (Clostridium ramosum) was 0.25 µg/mL. The “Minimal Inhibitory Concentration Range” value (Clostridium ramosum) was 0.06 to 0.25 µg/mL, the “Minimal Inhibitory Concentration 50% (MIC50)” value (Bilophila wadsworthia) was 2 µg/mL and the “Minimal Inhibitory Concentration 90% (MIC90)” value (Bilophila wadsworthia) was 4 µg/mL. For the same substance, the “Minimal Inhibitory Concentration Range” value (Bilophila wadsworthia) was 1 to 4 µg/mL, the “Minimal Inhibitory Concentration 50% (MIC50)” value [11] was 0.03 µg/mL and the “Minimal Inhibitory Concentration Range” value [11] was 0.03 to 0.125 µg/mL. For the same substance, the “Minimal Inhibitory Concentration 90% (MIC90)” value (Porphyromonas canoris) was 0.03 µg/mL, the “Minimal Inhibitory Concentration 50% (MIC50)” value (Fusobacterium varium) was 2 µg/mL and the “Minimal Inhibitory Concentration 90% (MIC90)” value (Fusobacterium varium) was 4 µg/mL. For the same substance, the “Minimal Inhibitory Concentration Range” value (Fusobacterium varium) was 0.125 to 4 µg/mL, the “Minimal Inhibitory Concentration 50% (MIC50)” value (Prevotella bivia) was 0.5 µg/mL and the “Minimal Inhibitory Concentration 90% (MIC90)” value (Prevotella bivia) was 4 µg/mL. The “Minimal Inhibitory Concentration Range” value (Prevotella bivia) was 0.06 to 4 µg/mL, the “Minimal Inhibitory Concentration 90% (MIC90)” value [12] was 0.25 µg/mL and the “Minimal Inhibitory Concentration Range” value [12] was 0.06 to 0.25 µg/mL. For the same substance, the “Minimal Inhibitory Concentration 90% (MIC90)” value [13] was 0.03 µg/mL, the “Minimal Inhibitory Concentration 90% (MIC90)” value [14] was 0.25 µg/mL and the “Minimal Inhibitory Concentration Range” value [14] was 0.125 to 0.25 µg/mL. For the same substance, the “Minimal Inhibitory Concentration 50% (MIC50)” value [15] was 0.03 µg/mL, the “Minimal Inhibitory Concentration Range” value [15] was 0.03 to 1 µg/mL and the “Minimal Inhibitory Concentration 50% (MIC50)” value (Bacteroides tectum) was 0.06 µg/mL. For the same substance, the “Minimal Inhibitory Concentration 90% (MIC90)” value (Bacteroides tectum) was 0.5 µg/mL and the “Minimal Inhibitory Concentration Range” value (Bacteroides tectum) was 0.03 to 0.5 µg/mL.

— patent publication US6455540B1, “Methods of use of quinolone compounds against anaerobic pathogenic bacteria” (priority 1999, dated 2002)
